Measured values as given in ChEMBL document CHEMBL1201862, “PubChem BioAssay data set” (2004).
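Values below derive from 48-hour exposures of cells grown in 96-well plates, with endpoints linearly interpolated between the two concentrations bracketing the appropriate inhibition level. The concentration for 50% growth inhibition is given as GI50.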 The source made the active and inactive calls. No stated cut-off is given here; in the data, active = GI50 up to about 1.1 µM and inactive = higher.

Assays:
Assay in all cases: DTP human tumour cell line panel, 48 h
[1] = system: A549
[2] = system: HCT-15
[3] = system: NCI-H522
[4] = system: T47D
[5] = system: MDA-MB-231
[6] = system: HOP-62
[7] = system: MDA-MB-435
[8] = system: M14
[9] = system: Malme-3M
[10] = system: OVCAR-8
[11] = system: DU-145
[12] = system: SF-295
[13] = system: OVCAR-3
[14] = system: RXF 393
[15] = system: MDA-N

C=C(Br)C(C)(Cl)CCC(Br)C(C)(C)Cl (stereo not given)
GI50 [1]: 36.1 µM (inactive) | GI50 [2]: 43 µM | GI50 [3]: 40.5 µM (inactive) | GI50 [4]: > 100 µM (inactive) | GI50 [5]: 42.3 µM (inactive) | GI50 [6]: 41.2 µM (inactive) | GI50 [7]: 28.4 µM (inactive) | GI50 [8]: 32.9 µM (inactive) | GI50 [9]: 23.4 µM (inactive) | GI50 [10]: 64.1 µM (inactive) | GI50 [11]: > 100 µM (inactive) | GI50 [12]: 34.8 µM (inactive) | GI50 [13]: 20 µM (inactive) | GI50 [14]: 24.7 µM (inactive) | GI50 [15]: 48 µM (inactive)

O=S(=O)(Nc1ccccc1)c1ccc(-c2c3nc(c(-c4ccc(S(=O)(=O)Nc5ccccc5)cc4)c4ccc([nH]4)c(-c4ccc(S(=O)(=O)Nc5ccccc5)cc4)c4nc(c(-c5ccc(S(=O)(=O)Nc6ccccc6)cc5)c5ccc2[nH]5)C=C4)C=C3)cc1
GI50 [1]: > 31.6 µM (inactive) | GI50 [2]: > 31.6 µM | GI50 [3]: > 31.6 µM (inactive) | GI50 [4]: > 31.6 µM (inactive) | GI50 [5]: 24 µM (inactive) | GI50 [6]: > 10 µM (inactive) | GI50 [7]: > 31.6 µM (inactive) | GI50 [8]: 12.6 µM (inactive) | GI50 [9]: > 31.6 µM (inactive) | GI50 [10]: > 31.6 µM (inactive) | GI50 [11]: > 31.6 µM (inactive) | GI50 [12]: 22.9 µM (inactive) | GI50 [13]: > 10 µM (inactive) | GI50 [14]: > 31.6 µM (inactive) | GI50 [15]: > 31.6 µM (inactive)

COc1cc(-c2cc(-c3ccccc3)nc(-c3c(OC)ccc4c(C)cc(=O)oc34)c2)cc(OC)c1OC
GI50 [1]: > 100 µM (inactive) | GI50 [2]: > 100 µM | GI50 [3]: > 100 µM (inactive) | GI50 [4]: > 100 µM (inactive) | GI50 [5]: > 100 µM (inactive) | GI50 [6]: > 100 µM (inactive) | GI50 [7]: > 100 µM (inactive) | GI50 [8]: > 100 µM (inactive) | GI50 [9]: > 100 µM (inactive) | GI50 [10]: > 100 µM (inactive) | GI50 [11]: > 100 µM (inactive) | GI50 [12]: > 100 µM (inactive) | GI50 [13]: > 100 µM (inactive) | GI50 [14]: > 100 µM (inactive) | GI50 [15]: > 100 µM (inactive)

CCN(CC(=O)O)C(=O)c1cccnc1
GI50 [1]: > 100 µM (inactive) | GI50 [2]: > 100 µM | GI50 [3]: > 100 µM (inactive) | GI50 [4]: > 100 µM (inactive) | GI50 [5]: > 100 µM (inactive) | GI50 [6]: > 100 µM (inactive) | GI50 [7]: > 100 µM (inactive) | GI50 [8]: > 100 µM (inactive) | GI50 [9]: > 100 µM (inactive) | GI50 [10]: > 100 µM (inactive) | GI50 [11]: > 100 µM (inactive) | GI50 [12]: > 100 µM (inactive) | GI50 [13]: > 100 µM (inactive) | GI50 [14]: > 100 µM (inactive) | GI50 [15]: > 100 µM (inactive)

O=C1CCCSC(=O)N1Cc1ccccc1
GI50 [1]: > 100 µM (inactive) | GI50 [2]: > 100 µM | GI50 [3]: > 100 µM (inactive) | GI50 [4]: > 100 µM (inactive) | GI50 [5]: > 100 µM (inactive) | GI50 [6]: > 100 µM (inactive) | GI50 [7]: > 100 µM (inactive) | GI50 [8]: > 100 µM (inactive) | GI50 [9]: > 100 µM (inactive) | GI50 [10]: > 100 µM (inactive) | GI50 [11]: > 100 µM (inactive) | GI50 [12]: > 100 µM (inactive) | GI50 [13]: > 100 µM (inactive) | GI50 [14]: > 100 µM (inactive) | GI50 [15]: > 100 µM (inactive)

O=C(Nc1ccc(F)cc1)c1cc2c(cc1Cl)Sc1nccn1S2(=O)=O
GI50 [1]: > 100 µM (inactive) | GI50 [2]: 81.7 µM | GI50 [3]: 76.9 µM (inactive) | GI50 [4]: 45.9 µM (inactive) | GI50 [5]: 38.2 µM (inactive) | GI50 [6]: 34.8 µM (inactive) | GI50 [7]: 59.4 µM (inactive) | GI50 [8]: > 100 µM (inactive) | GI50 [9]: > 100 µM (inactive) | GI50 [10]: 85.9 µM (inactive) | GI50 [11]: > 100 µM (inactive) | GI50 [12]: 28.9 µM (inactive) | GI50 [13]: 84.5 µM (inactive) | GI50 [14]: 31.7 µM (inactive) | GI50 [15]: > 100 µM (inactive)

COc1ccc2c(c1)CCCN1Cc3cc(OC)c(OC)cc3CC21 (stereo not given)
GI50 [1]: > 100 µM (inactive) | GI50 [2]: > 100 µM | GI50 [3]: 75.5 µM (inactive) | GI50 [4]: 20.2 µM (inactive) | GI50 [5]: > 100 µM (inactive) | GI50 [6]: 60.4 µM (inactive) | GI50 [7]: > 100 µM (inactive) | GI50 [8]: 18.9 µM (inactive) | GI50 [9]: > 100 µM (inactive) | GI50 [10]: > 100 µM (inactive) | GI50 [11]: > 100 µM (inactive) | GI50 [12]: > 100 µM (inactive) | GI50 [13]: 82.2 µM (inactive) | GI50 [14]: 25.6 µM (inactive) | GI50 [15]: > 100 µM (inactive)
